Where a name gives a salt, the structure may show the parent alone.

For series [1] the following is noted: for molecular weight of PLGA compared with blank control: both 4° C. and RT, after 12 months.
Procedure: Poly(DL-lactide-co-glycolide) (PLGA) of an 85/15 ratio of lactide to glycolide (DLPLG85/15, IV: 0.28) with a lauryl ester end group was dissolved in N-methyl-2-pyrrolidone (NMP) to give a 50% solution by weight. […] The injectable compositions were filled into 1.2 mL polypropylene syringes with luer-lock tips. Then the pre-filled syringes were sealed using luer-lock caps. The capped syringes were packaged in a container and sealed in a plastic bag under vacuum and then stored at 4° C. and room temperature (˜22° C.) for up to 18 months. The injectable composition was sampled at 24 h, 1, 2, 3, 6, 12, and 18-month time points. Purity of leuprolide in the sample was determined by HPLC. Molecular weight of the polymer was determined by gel permeation chromatography (GPC) using polystyrene standards with known molecular weights.
Series [2] can be described thus: In vitro release of leuprolide in PBS at pH 7.4 at 37° C. (HPLC). The note with it: for release of leuprolide completed: Example 5, FIG. 3, PLA 16,000 Dalton 60% in NMP, about 12% leuprolide, gamma 25 kGy. The series is classed as physicochemical. The procedure: The product is supplied in 2 separate syringes with the leuprolide acetate in one syringe and the polymer solution in the other. The two are mixed immediately prior to injection. The polymer solution contains a 50% 8515PLGA polymer solution in NMP. The molecular weight of the polymer is about 20k dalton. […] The leuprolide mesylate was prepared from leuprolide acetate by ion exchange lyophilization process and contains a small amount of acetate. The formulation was mixed and stored in a single syringe. Another formulation was made with LAMS using a PLA polymer with a molecular weight of 15k dalton (PLA-1) and a polydispersity index (PDI) of 1.8. This formulation was also mixed and stored in a single syringe. […] The release sample was taken at predefined time points and analyzed by HPLC.
The in vitro release of leuprolide was tested from these two formulations. The in vitro release test was performed in PBS at pH 7.4 at 37° C. and the release of leuprolide over time was measured by HPLC. Briefly, an aliquot of the formulation (about 100 mg) was injected into 3 mL phosphate buffer saline solution at pH 7.4 with 0.1% sodium azide at 37° C. The receiving fluid was replaced at predefined time points with fresh buffer solution, and the removed buffer solution diluted 2-fold with phosphate buffer at pH 7.4 was analyzed for drug concentration by HPLC. The amount released at each time point was calculated.
The in vitro release of leuprolide was tested from several kits of Eligard® 45 mg. These kits contain 1 syringe with leuprolide acetate (LAAc) and one syringe of polymer solution (PLGA8515 in NMP). PLGA8515 used here was prepared with hexanediol as an initiator and has a molar ratio of DL-lactide to Glycolide=85:15. The PLGA8515 polymer has one hydroxyl end group at both ends of the polymer chain. The two syringes are connected and the contents are mixed immediately prior to injection.
Formulations were made with leuprolide mesylate (LAMS(1.6)) in order to achieve the delivery of leuprolide for a period of 3 months. The leuprolide mesylate was prepared from leuprolide formate by salt exchange lyophilization process and contains a small amount of formic acid. […] The removed release media was analyzed by HPLC for leuprolide content.
The in vitro release of leuprolide was tested from these two formulations. The in vitro release test was performed in PBS at pH 7.4 at 37° C. and the release of leuprolide was measured by HPLC over time. […]
Formulations designed for a release duration of one month were made with a 50:50PLGA polymer (MW 50k, PDI 4.0) in NMP using LAMS with a methane sulfonic acid to leuprolide ratio of 1.6:1 and 2.0:1. The formulations were stored at 25° C. and the peptide purity and polymer molecular weight were measured over time. […]

As to `CCNC(=O)[C@@H]1CCCN1C(=O)[C@H](CCCNC(=N)N)NC(=O)[C@H](CC(C)C)NC(=O)[C@@H](CC(C)C)NC(=O)[C@H](Cc1ccc(O)cc1)NC(=O)[C@H](CO)NC(=O)[C@H](Cc1c[nH]c2ccccc12)NC(=O)[C@H](Cc1c[nH]cn1)NC(=O)[C@@H]1CCC(=O)N1` [leuprolide acetate, reference compound], the “molecular weight of PLGA decreased, comparing to blank control” value in series [1] (4° C., after 6 months) is on record as “more than 10%”. For the same compound, the “release of leuprolide completed” value in series [2] is ~240 days. Further, the “in vitro release lasts longer versus leuprolide mesylate” value in series [2] (Example 5, same PLA/NMP solution) was “more than 60 days”.
Consider leuprolide mesylate, for which, in series [1], the “molecular weight of PLGA compared with blank control” value is reported as “the same as that of the blank control”. Moreover, the “release of leuprolide completed” value in series [2] was ~180 days. Also, the leuprolide released in series [2] (Example 6, FIG. 4, polymer syringe from the Eligard 45 mg kit, at 112 days) is given as > 99.
As for `CCNC(=O)[C@@H]1CCCN1C(=O)[C@H](CCCNC(=N)N)NC(=O)[C@H](CC(C)C)NC(=O)[C@@H](CC(C)C)NC(=O)[C@H](Cc1ccc(O)cc1)NC(=O)[C@H](CO)NC(=O)[C@H](Cc1c[nH]c2ccccc12)NC(=O)[C@H](Cc1c[nH]cn1)NC(=O)[C@@H]1CCC(=O)N1` [leuprolide hydrochloride], the “molecular weight of PLGA compared with blank control” value in series [1] is on record as “the same as that of the blank control”.

Source of the values: patent US12133878B2, “Pharmaceutical compositions having a selected release duration” (Foresee Pharmaceuticals Co., Ltd., priority 2017, dated 2024).
